Data set [1] in a line: Solubility of NPMG-iminourea salts in water. The data set is classed as physicochemical. The method, then: SOLUBILITY OF NPMG-IMINOUREA SALTS
NPMG Salt 20° C. (in grams)

The conditions of data set [2]: background statement; cited from earlier work.
The next data set relates to various plant species. The following applies: background statement; cited from earlier work.

Where a name gives a salt, the structure may show the parent alone.

`O=C(O)CNCP(=O)(O)O` [I, NPMG MONO (GUANIDINE) SALT]: the “Weight dissolved in 100 ml water at 20° C.” value in data set [1] amounted to 15.7 grams.

`O=C(O)CNCP(=O)(O)O` [II, NPMG MONO (AMINOGUANIDINE) SALT]: in data set [1] (in words), the “water solubility (in words)” value is on record as “highly water-soluble”. Further, the “content of active materials in solutions readily prepared” value in data set [1] (water as preferred diluent) is no more than 60 % by weight.

For `O=C(O)CNCP(=O)(O)O` [NPMG, N-phosphonomethylglycine], the “solubility in water and conventional organic solvents (in words)” value in data set [2] is “relatively insoluble in water and conventional organic solvents”. The “herbicidal effect (in words)” value with various plant species is reported as “very effective phytotoxicant or herbicide”.

For `O=C(O)CNCP(=O)(O)O` [V, NPMG MONO (TETRA METHYL GUANIDINE) SALT], the “Weight dissolved in 100 ml water at 20° C.” value in data set [1] (listed as 1,1,3,3 Tetra Methyl Guanidine) is 165 grams.

These data come from patent US4397676A, “N-Phosphonomethylglycine derivatives” (Geshuri Laboratories Ltd., priority 1982, dated 1983).
